Data published in patent US20220183294A1, “PESTICIDALLY ACTIVE AZOLE AMIDE COMPOUNDS” (SYNGENTA CROP PROTECTION AG, priority 2019, published 2022).

How the values were obtained:
Type in all cases: in vivo
[1] = tested on: Chilo suppressalis (Striped rice stemborer); assay: Example B4: Chilo suppressalis (Striped rice stemborer), artificial diet; conditions: 144 h, application rate 200 ppm, L2 larvae, 6 days after infestation, read-out: control in at least one of the three categories (mortality, anti-feedant effect, or growth inhibition)
Protocol: Example B4: Chilo suppressalis (Striped rice stemborer) 24-well microtiter plates with artificial diet were treated with aqueous test solutions prepared from 10′000 ppm DMSO stock solutions by pipetting. After drying, the plates were infested with L2 larvae (6-8 per well). The samples were assessed for mortality, anti-feeding effect, and growth inhibition in comparison to untreated samples 6 days after infestation. Control of Chilo suppressalis by a test sample is given when at least one of the categories mortality, anti-feedant effect, and growth inhibition is higher than the untreated sample.

[2] = tested on: Spodoptera littoralis (Egyptian cotton leaf worm); assay: Example B9: Spodoptera littoralis (Egyptian cotton leaf worm), sprayed cotton leaf discs; conditions: foliar, 72 h, application rate 200 ppm, L1 larvae, 3 days after infestation, read-out: control in at least one of the three categories (mortality, anti-feedant effect, or growth inhibition)
Protocol: Example B9: Spodoptera littoralis (Egyptian cotton leaf worm)
Cotton leaf discs were placed onto agar in 24-well microtiter plates and sprayed with aqueous test solutions prepared from 10′000 ppm DMSO stock solutions. After drying the leaf discs were infested with five L1 larvae. The samples were assessed for mortality, anti-feeding effect, and growth inhibition in comparison to untreated samples 3 days after infestation. Control of Spodoptera littoralis by a test sample is given when at least one of the categories mortality, anti-feedant effect, and growth inhibition is higher than the untreated sample.

[3] = tested on: Plutella xylostella (Diamond back moth); assay: Example B5: Plutella xylostella (Diamond back moth), artificial diet, 24-well; conditions: 192 h, application rate 200 ppm, eggs, 8 days after infestation, read-out: control in at least one of the two categories (mortality or growth inhibition)
Protocol: Example B5: Plutella xylostella (Diamond back moth)
24-well microtiter plates with artificial diet were treated with aqueous test solutions prepared from 10′000 ppm DMSO stock solutions by pipetting. After drying, Plutella eggs were pipetted through a plastic stencil onto a gel blotting paper and the plate was closed with it. The samples were assessed for mortality and growth inhibition in comparison to untreated samples 8 days after infestation.
(§1) The following compounds gave an effect of at least 80% control in at least one of the two categories (mortality or growth inhibition) at an application rate of 200 ppm: […]

[4] = tested on: Diabrotica balteata (Corn root worm); assay: Example B1: Diabrotica balteata (Corn root worm), sprayed maize sprouts; conditions: 96 h, application rate 200 ppm, L2 larvae, 4 days after infestation, read-out: control in at least one of the two categories (mortality or growth inhibition)
Protocol: Example B1: Diabrotica balteata (Corn root worm)
Maize sprouts placed onto an agar layer in 24-well microtiter plates were treated with aqueous test solutions prepared from 10′000 ppm DMSO stock solutions by spraying. After drying, the plates were infested with L2 larvae (6 to 10 per well). The samples were assessed for mortality and growth inhibition in comparison to untreated samples 4 days after infestation.
as §1

CC(NC(=O)c1cc(C(F)(F)F)cc(C2(C#N)CC2)c1)c1ncnn1-c1ncc(OC(F)F)cn1 (centres unmarked) [P26, 3-(1-cyanocyclopropyl)-N-[1-[2-[5-(difluoromethoxy)pyrimidin-2-yl]-1,2,4-triazol-3-yl]ethyl]-5-(trifluoromethyl) benzamide]
≥ 80%: percent control (mortality, anti-feedant effect or growth inhibition) at 200 ppm [1] | percent control (mortality, anti-feedant effect or growth inhibition) at 200 ppm [2] | percent control (mortality or growth inhibition) at 200 ppm [3]

CC(NC(=O)c1cc(C(F)(F)F)cc(C(F)(F)C2CC2)c1)c1ncnn1-c1ncc(OCC(F)(F)F)cn1 (centres unmarked) [P20, 3-[cyclopropyl(difluoro)methyl]-N-[1-[2-[5-(2,2,2-trifluoroethoxy)pyrimdin-2-yl]-1,2,4-triazol-3-yl]ethyl]-5-(trifluoromethyl) benzamide]
≥ 80%: percent control (mortality, anti-feedant effect or growth inhibition) at 200 ppm [1] | percent control (mortality, anti-feedant effect or growth inhibition) at 200 ppm [2] | percent control (mortality or growth inhibition) at 200 ppm [3]

CC(NC(=O)c1cc(C2CC2)nc(C(F)(F)F)c1)c1ncnn1-c1ccc(C#N)cn1 (centres unmarked) [P15, N-[1-[2-(5-cyano-2-pyridyl)-1,2,4-triazol-3-yl]ethyl]-2-cyclopropyl-6-(trifluoromethyl)pyridine-4-carboxamide]
≥ 80%: percent control (mortality, anti-feedant effect or growth inhibition) at 200 ppm [1] | percent control (mortality, anti-feedant effect or growth inhibition) at 200 ppm [2] | percent control (mortality or growth inhibition) at 200 ppm [3] | percent control (mortality or growth inhibition) at 200 ppm [4]

CC(NC(=O)c1cc(C(F)(F)F)nc(C2(C#N)CC2)c1)c1ncnn1-c1ncc(OC(F)F)cn1 (centres unmarked) [P8, 2-(1-cyanocyclopropyl)-N-[1-[2-[5-(difluoromethoxy)pyrimidin-2-yl]-1,2,4-triazol-3-yl]ethyl]-6-(trifluoromethyl) pyridine-4-carboxamide]
≥ 80%: percent control (mortality, anti-feedant effect or growth inhibition) at 200 ppm [1] | percent control (mortality, anti-feedant effect or growth inhibition) at 200 ppm [2] | percent control (mortality or growth inhibition) at 200 ppm [3] | percent control (mortality or growth inhibition) at 200 ppm [4]

CC(NC(=O)c1cc(C(F)(F)F)cc(C2(C#N)CC2)c1)c1ncnn1-c1ccc(OC(F)F)cn1 (centres unmarked) [P24, 3-(1-cyanocyclopropyl)-N-[1-[2-[5-(difluoromethoxy)-2-pyridyl]-1,2,4-triazol-3-yl]ethyl]-5-(trifluoromethyl) benzamide]
≥ 80%: percent control (mortality, anti-feedant effect or growth inhibition) at 200 ppm [1] | percent control (mortality, anti-feedant effect or growth inhibition) at 200 ppm [2] | percent control (mortality or growth inhibition) at 200 ppm [3] | percent control (mortality or growth inhibition) at 200 ppm [4]

CC(NC(=O)c1cc(C(F)(F)F)nc(C2(C#N)CC2)c1)c1ncnn1-c1ncc(OCC(F)(F)F)cn1 (centres unmarked) [P30, 2-(1-cyanocyclopropyl)-N-[1-[2-[5-(2,2,2-trifluoroethoxy)pyrimidin-2-yl]-1,2,4-triazol-3-yl]ethyl]-6-(trifluoromethyl) pyridine-4-carboxamide]
≥ 80%: percent control (mortality, anti-feedant effect or growth inhibition) at 200 ppm [2] | percent control (mortality or growth inhibition) at 200 ppm [3]

CC(NC(=O)c1cc(C2CC2C(F)(F)F)cc(C(F)(F)F)c1)c1ncnn1-c1ccc(C#N)cn1 (centres unmarked) [P13, N-[1-[2-(5-cyano-2-pyridyl)-1,2,4-triazol-3-yl]ethyl]-3-(trifluoromethyl)-5-[2-(trifluoromethyl)cyclopropyl]benzamide]
≥ 80%: percent control (mortality, anti-feedant effect or growth inhibition) at 200 ppm [1] | percent control (mortality, anti-feedant effect or growth inhibition) at 200 ppm [2] | percent control (mortality or growth inhibition) at 200 ppm [3] | percent control (mortality or growth inhibition) at 200 ppm [4]

CC(NC(=O)c1cc(C(F)(F)F)cc(S(=O)(=O)C(F)(F)F)c1)c1ncnn1-c1ncc(OCC(F)F)cn1 (centres unmarked) [P16, N-[1-[2-[5-(2,2-difluoroethoxy)pyrimidin-2-yl]-1,2,4-triazol-3-yl]ethyl]-3-(trifluoromethyl)-5-(trifluoromethylsulfonyl) benzamide]
≥ 80%: percent control (mortality, anti-feedant effect or growth inhibition) at 200 ppm [1] | percent control (mortality, anti-feedant effect or growth inhibition) at 200 ppm [2] | percent control (mortality or growth inhibition) at 200 ppm [3] | percent control (mortality or growth inhibition) at 200 ppm [4]

CC(NC(=O)c1cc(C2CC2)cc(C(F)(F)F)c1)c1ncnn1-c1ncc(OCC(F)F)cn1 (centres unmarked) [P23, 3-cyclopropyl-N-[1-[2-[5-(2,2-difluoroethoxy)pyrimidin-2-yl]-1,2,4-triazol-3-yl]ethyl]-5-(trifluoromethyl) benzamide]
≥ 80%: percent control (mortality, anti-feedant effect or growth inhibition) at 200 ppm [1] | percent control (mortality, anti-feedant effect or growth inhibition) at 200 ppm [2] | percent control (mortality or growth inhibition) at 200 ppm [3] | percent control (mortality or growth inhibition) at 200 ppm [4]

CC(NC(=O)c1cc(C(F)(F)F)nc(C2(C#N)CC2)c1)c1ncnn1-c1ccc(OC(F)F)cn1 (centres unmarked) [P17, 2-(1-cyanocyclopropyl)-N-[1-[2-[5-(difluoromethoxy)-2-pyridyl]-1,2,4-triazol-3-yl]ethyl]-6-(trifluoromethyl) pyridine-4-carboxamide]
≥ 80%: percent control (mortality, anti-feedant effect or growth inhibition) at 200 ppm [1] | percent control (mortality, anti-feedant effect or growth inhibition) at 200 ppm [2] | percent control (mortality or growth inhibition) at 200 ppm [3] | percent control (mortality or growth inhibition) at 200 ppm [4]

CC(NC(=O)c1cc(C(F)(F)F)cc(C2(C#N)CC2)c1)c1ncnn1-c1ncc(OCC(F)F)cn1 (centres unmarked) [P31, 3-(1-cyanocyclopropyl)-N-[1-[2-[5-(2,2-difluoroethoxy)pyrimidin-2-yl]-1,2,4-triazol-3-yl]ethyl]-5-(trifluoromethyl) benzamide]
≥ 80%: percent control (mortality, anti-feedant effect or growth inhibition) at 200 ppm [1] | percent control (mortality or growth inhibition) at 200 ppm [3]

CC(NC(=O)c1cc(C(F)(F)F)cc(C2(C#N)CC2)c1)c1ncnn1-c1ccc(C#N)cn1 (centres unmarked) [P18, 3-(1-cyanocyclopropyl)-N-[1-[2-(5-cyano-2-pyridyl)-1,2,4-triazol-3-yl]ethyl]-5-(trifluoromethyl) benzamide]
≥ 80%: percent control (mortality, anti-feedant effect or growth inhibition) at 200 ppm [1] | percent control (mortality, anti-feedant effect or growth inhibition) at 200 ppm [2] | percent control (mortality or growth inhibition) at 200 ppm [3]

CC(NC(=O)c1cc(C(F)(F)F)cc(C2(C#N)CC2)c1)c1ncnn1-c1ncc(OCC(F)(F)F)cn1 (centres unmarked) [P25, 3-(1-cyanocyclopropyl)-N-[1-[2-[5-(2,2,2-trifluoroethoxy)pyrimidin-2-yl]-1,2,4-triazol-3-yl]ethyl]-5-(trifluoromethyl) benzamide]
≥ 80%: percent control (mortality, anti-feedant effect or growth inhibition) at 200 ppm [1] | percent control (mortality, anti-feedant effect or growth inhibition) at 200 ppm [2] | percent control (mortality or growth inhibition) at 200 ppm [3]

CC(NC(=O)c1cc(C(F)(F)F)cc(C(F)(F)C2CC2)c1)c1ncnn1-c1ccc(OC(F)F)cn1 (centres unmarked) [P19, 3-[cyclopropyl(difluoro)methyl]-N-[1-[2-[5-(difluoromethoxy)-2-pyridyl]-1,2,4-triazol-3-yl]ethyl]-5-(trifluoromethyl) benzamide]
≥ 80%: percent control (mortality, anti-feedant effect or growth inhibition) at 200 ppm [1] | percent control (mortality, anti-feedant effect or growth inhibition) at 200 ppm [2] | percent control (mortality or growth inhibition) at 200 ppm [3]
